Columns and labels:
Format in all cases: in vivo
[1] = system: anti-glucose-6-phosphate isomerase (GPI) Ig; assay: Serum anti-GPI Ig titer in treated K/BxN mice; settings: FIG. 2A; IgM and IgG isotypes, vs carrier alone
Excerpt: (§1) FIG. 2A is a graph of the titer of serum anti-glucose-6-phosphate isomerase (GPI) IgM and IgG isotypes from K/BxN mice treated with 1-methyl-tryptophan or carrier alone. FIG. 2B is a graph of the number of anti-GPI secreting cells per 10^5 cells present in the spleen, draining lymph nodes (dLN), and non-draining lymph nodes (non-dLN) of K/BxN mice treated with 1-methyl-tryptophan or carrier alone.
(§2) K/BxN mice produce arthritogenic Abs directed against GPI, which develop at high titers because of the preferential help that B cells expressing GPI-specific immunoglobulins receive from GPI-reactive T cells displaying the transgene-encoded TCR.

[2] = system: anti-GPI antibody secreting cells; assay: Anti-GPI antibody secreting cells in spleen and lymph nodes of treated K/BxN mice; settings: FIG. 2B; spleen, draining lymph nodes (dLN), non-draining lymph nodes (non-dLN), vs carrier alone
Excerpt: as §1, §2

[3] = system: K/BxN mice; assay: Arthritis prevention in K/BxN mice, treatment from weaning, rear ankle thickness
Excerpt: K/BxN TCR transgenic mice express a TCR reactive to a self-peptide derived from the glucose-6-phosphate isomerase (GPI), presented by the MHC class II molecule A^g7 (Korganow et al. (1999) Immunity, 10:451-461; Kouskoff et al. (1996) Cell, 87:811-822; Matsumoto et al. (1999) Science, 286:1732-1735). K/BxN mice spontaneously develop a very aggressive form of arthritis at 3 to 4 weeks of age. […] The arthritis experienced by K/BxN mice is joint specific and allows for the scoring of the arthritis by caliper measurement of ankle thickness (Korganow et al. (1999) Immunity, 10:451-461; Ji et al. (2001) J. Exp. Med., 194:321-330).
Starting at weaning (21 days of age) K/BxN mice were administered 400 mg/kg of 1-methyl-D-tryptophan, 400 mg/kg of 1-methyl-L-tryptophan, or carrier alone b.i.d. (twice daily) by p.o. (oral) gavage.
Mice were given 400 mg/kg/dose (100 μl total volume) of D/L-1MT or D-1MT diluted in METHOCEL™/Tween® (0.5% Tween 80, 0.5% methylcellulose (v/v in water) twice daily by oral gavage (p.o.) using a curved feeding needle as described (Muller et al. (2005) Nat. Med., 11:312-319). 1MT was administered on a b.i.d. schedule, once in the morning and once in the evening. Methotrexate (MTX) was diluted in 0.5% carboxymethyl cellulose and administered by oral gavage at a range of doses 1-25 mg/kg/dose (0.1 cc/20 g mouse) using a curved feeding needle. The mice were given one dose per week as described (Asanuma et al. (2002) Eur. J. Pharmacol., 435:253-258). Control mice were given an equal volume of carrier alone (METHOCEL™/Tween®).
For the arthritis prevention experiments, MTX and/or 1MT treatment was started on the day of weaning (age 21 days). For the treatment of established arthritis, MTX and/or 1MT was administered after the mice had measurable arthritis.
The two rear ankles of MTX, 1MT, MTX+1 MT, or carrier-treated K/BxN mice were measured starting at weaning (3 wk of age) as described (Mandik-Nayak et al. (2002) Proc. Natl. Acad. Sci., 99:14368-14373). Measurement of ankle thickness was made above the footpad axially across the ankle joint using a Fowler Metric Pocket Thickness Gauge.

[4] = Example 1, FIG. 1, 400 mg/kg b.i.d. p.o. from 21 days of age, vs carrier alone
[5] = Example 2, FIG. 3, 400 mg/kg p.o. b.i.d. from 21 days, n=5
[6] = FIG. 4, MTX 1, 10 or 25 mg/kg weekly p.o. from 3 weeks of age, increasing amounts

Row | SMILES | degree of arthritis (mean ankle thickness) [3, 4] | onset of arthritis [3, 4] | degree of arthritis (mean ankle thickness) [3, 5] | onset of arthritis [3, 5] | further results
1 | Cn1cc(C[C@H](N)C(=O)O)c2ccccc21 (racemic) [1-MT, 1-methyl-tryptophan] | – | – | – | – | levels of serum anti-GPI Ig [1]: reduced levels of serum anti-GPI Ig; numbers of anti-GPI antibody secreting cells [2]: reduced numbers of anti-GPI antibody secreting cells
2 | Cn1cc(C[C@@H](N)C(=O)O)c2ccccc21 [1-methyl-D-tryptophan] | greatly reduced the degree of arthritis | delayed the onset of arthritis | reduced the degree of arthritis | delayed the onset of arthritis | arthritis development ([3]; FIG. 3 legend, 400 mg/kg p.o. b.i.d. from 21 days): inhibits arthritis development
3 | Cn1cc(CC(N)C(=O)O)c2ccccc21 [1-methyl-D/L-tryptophan] | – | – | reduced the degree of arthritis | delayed the onset of arthritis | –
4 | Cn1cc(C[C@H](N)C(=O)O)c2ccccc21 [1-methyl-L-tryptophan] | greatly reduced the degree of arthritis | delayed the onset of arthritis | – | – | –
5 | CN(Cc1cnc2nc(N)nc(N)c2n1)c1ccc(C(=O)N[C@@H](CCC(=O)O)C(=O)O)cc1 [MTX, methotrexate] | – | – | – | – | degree of arthritis [3, 6]: reduced the degree of arthritis; onset of arthritis [3, 6]: inhibited the onset of arthritis; arthritis development ([3]; FIG. 4 legend, MTX 1, 10 or 25 mg/kg weekly p.o. from 3 weeks of age): dose-dependent inhibition of arthritis development

Reference: patent US20090253706A1, “Methods and Compositions for the Treatment of Rheumatoid Arthritis and Other Inflammatory Diseases” (priority 2008, published 2009)
